Measurements reported in ChEMBL document CHEMBL3885881, “DrugMatrix”.

Species: Rattus norvegicus
Assay: DrugMatrix - Regimen: Daily Repeat
Type: toxicity, organism-based, Sprague-Dawley
Parameters: regimen Daily Repeat, gender Male, age 6-8 weeks
Conditions: in vivo, po, route oral GAVAGE, vehicle .5 % CMC; for ABSOLUTE LYMPHOCYTE / ABSOLUTE MONOCYTE / ABSOLUTE SEGMENTED NEUTROPHIL / BASOPHIL / EOSINOPHIL / ERYTHROCYTE COUNT / HEMATOCRIT / HEMOGLOBIN / LEUKOCYTE COUNT / LYMPHOCYTE / MEAN CORPUSCULAR HEMOGLOBIN / MEAN CORPUSCULAR HEMOGLOBIN CONCENTRATION / MEAN CORPUSCULAR VOLUME / MONOCYTE / NEUTROPHIL / NUCLEATED RED BLOOD CELLS / PLATELET COUNT / ABSOLUTE BASOPHIL / ABSOLUTE EOSINOPHIL: tissue Blood; for ALANINE AMINOTRANSFERASE / ALBUMIN / ALKALINE PHOSPHATASE / ASPARTATE AMINOTRANSFERASE / BLOOD UREA NITROGEN / CARBON DIOXIDE / CHLORIDE / CHOLESTEROL / CREATINE PHOSPHOKINASE / CREATININE / GLUCOSE / LACTATE DEHYDROGENASE / LIPASE / PHOSPHORUS / POTASSIUM / SODIUM / TOTAL BILIRUBIN / TOTAL PROTEIN / URIC ACID: tissue Plasma
[1] = 11 mg/kg, 120 h, dose level Low, time 5 day
[2] = 110 mg/kg, 72 h, dose level M1, time 3 day
[3] = 110 mg/kg, 120 h, dose level M1, time 5 day

COc1ccc2c3c1O[C@H]1C[C@@H](O)C=C[C@@]31CCN(C)C2 [GALANTAMINE]
ABSOLUTE LYMPHOCYTE [1]: 13451.33 CELLS/uL
ABSOLUTE MONOCYTE [1]: 58.33 CELLS/uL
ABSOLUTE SEGMENTED NEUTROPHIL [1]: 1323.67 CELLS/uL
BASOPHIL [1]: 0%
EOSINOPHIL [1]: 0%
ERYTHROCYTE COUNT [1]: 5.81 x10E6/uL
HEMATOCRIT [1]: 35.73%
HEMOGLOBIN [1]: 14.27 G/DL
LEUKOCYTE COUNT [1]: 14.83 x10E3/uL
LYMPHOCYTE [1]: 90.33%
MEAN CORPUSCULAR HEMOGLOBIN [1]: 24.57 pg
MEAN CORPUSCULAR HEMOGLOBIN CONCENTRATION [1]: 39.93 G/DL
MEAN CORPUSCULAR VOLUME [1]: 61.57 fL
MONOCYTE [1]: 0.33%
NEUTROPHIL [1]: 9.33%
NUCLEATED RED BLOOD CELLS [1]: 0 /100WBC
PLATELET COUNT [1]: 1163.33 x10E3/uL
ALANINE AMINOTRANSFERASE [1]: 48.67 u/L
ALBUMIN [1]: 4.27 G/DL
ALKALINE PHOSPHATASE [1]: 399 u/L
ASPARTATE AMINOTRANSFERASE [1]: 74.67 u/L
BLOOD UREA NITROGEN [1]: 20.33 mg/dL
CARBON DIOXIDE [1]: 28.33 mmol/L
CHLORIDE [1]: 99.67 MEQ/L
CHOLESTEROL [1]: 76.67 mg/dL
CREATINE PHOSPHOKINASE [1]: 330.67 u/L
CREATININE [1]: 0.19 mg/dL
GLUCOSE [1]: 158.67 mg/dL
LACTATE DEHYDROGENASE [1]: 135 u/L
LIPASE [1]: 10 u/L
PHOSPHORUS [1]: 12.37 mg/dL
POTASSIUM [1]: 6.09 MEQ/L
SODIUM [1]: 144.2 MEQ/L
TOTAL BILIRUBIN [1]: 0.23 mg/dL
TOTAL PROTEIN [1]: 6.17 G/DL
URIC ACID [1]: 1.33 mg/dL
ABSOLUTE BASOPHIL [2]: 0 CELLS/uL
ABSOLUTE EOSINOPHIL [2]: 37.33 CELLS/uL
ABSOLUTE LYMPHOCYTE [2]: 14169 CELLS/uL
ABSOLUTE MONOCYTE [2]: 124.67 CELLS/uL
ABSOLUTE SEGMENTED NEUTROPHIL [2]: 769 CELLS/uL
BASOPHIL [2]: 0%
EOSINOPHIL [2]: 0.33%
ERYTHROCYTE COUNT [2]: 5.81 x10E6/uL
HEMATOCRIT [2]: 36.57%
HEMOGLOBIN [2]: 14.27 G/DL
LEUKOCYTE COUNT [2]: 15.1 x10E3/uL
LYMPHOCYTE [2]: 94%
MEAN CORPUSCULAR HEMOGLOBIN [2]: 24.57 pg
MEAN CORPUSCULAR HEMOGLOBIN CONCENTRATION [2]: 39 G/DL
MEAN CORPUSCULAR VOLUME [2]: 62.97 fL
MONOCYTE [2]: 0.67%
NEUTROPHIL [2]: 5%
NUCLEATED RED BLOOD CELLS [2]: 0 /100WBC
PLATELET COUNT [2]: 1366 x10E3/uL
ALANINE AMINOTRANSFERASE [2]: 64.33 u/L
ALBUMIN [2]: 4.03 G/DL
ALKALINE PHOSPHATASE [2]: 411.33 u/L
ASPARTATE AMINOTRANSFERASE [2]: 91 u/L
BLOOD UREA NITROGEN [2]: 16 mg/dL
CARBON DIOXIDE [2]: 33 mmol/L
CHLORIDE [2]: 102.67 MEQ/L
CHOLESTEROL [2]: 70.67 mg/dL
CREATINE PHOSPHOKINASE [2]: 247.67 u/L
CREATININE [2]: 0.2 mg/dL
GLUCOSE [2]: 131.33 mg/dL
LACTATE DEHYDROGENASE [2]: 252 u/L
LIPASE [2]: 8.33 u/L
PHOSPHORUS [2]: 11.67 mg/dL
POTASSIUM [2]: 7.08 MEQ/L
SODIUM [2]: 144.3 MEQ/L
TOTAL BILIRUBIN [2]: 0.23 mg/dL
TOTAL PROTEIN [2]: 5.5 G/DL
URIC ACID [2]: 1.43 mg/dL
ABSOLUTE BASOPHIL [3]: 0 CELLS/uL
ABSOLUTE EOSINOPHIL [3]: 67.67 CELLS/uL
ABSOLUTE LYMPHOCYTE [3]: 15229.33 CELLS/uL
ABSOLUTE MONOCYTE [3]: 0 CELLS/uL
ABSOLUTE SEGMENTED NEUTROPHIL [3]: 1603 CELLS/uL
BASOPHIL [3]: 0%
EOSINOPHIL [3]: 0.33%
ERYTHROCYTE COUNT [3]: 5.71 x10E6/uL
HEMATOCRIT [3]: 35.4%
HEMOGLOBIN [3]: 14.07 G/DL
LEUKOCYTE COUNT [3]: 16.9 x10E3/uL
LYMPHOCYTE [3]: 90%
MEAN CORPUSCULAR HEMOGLOBIN [3]: 24.67 pg
MEAN CORPUSCULAR HEMOGLOBIN CONCENTRATION [3]: 39.77 G/DL
MEAN CORPUSCULAR VOLUME [3]: 62.03 fL
MONOCYTE [3]: 0%
NEUTROPHIL [3]: 9.67%
NUCLEATED RED BLOOD CELLS [3]: 0 /100WBC
PLATELET COUNT [3]: 1316.67 x10E3/uL
ALANINE AMINOTRANSFERASE [3]: 48 u/L
ALBUMIN [3]: 4.1 G/DL
ALKALINE PHOSPHATASE [3]: 401.67 u/L
ASPARTATE AMINOTRANSFERASE [3]: 99 u/L
BLOOD UREA NITROGEN [3]: 14.33 mg/dL
CARBON DIOXIDE [3]: 24.67 mmol/L
CHLORIDE [3]: 101.67 MEQ/L
CHOLESTEROL [3]: 60.33 mg/dL
CREATINE PHOSPHOKINASE [3]: 541 u/L
CREATININE [3]: 0.27 mg/dL
GLUCOSE [3]: 132.67 mg/dL
LACTATE DEHYDROGENASE [3]: 653 u/L
LIPASE [3]: 11 u/L
PHOSPHORUS [3]: 13 mg/dL
POTASSIUM [3]: 6.92 MEQ/L
SODIUM [3]: 143.03 MEQ/L
TOTAL BILIRUBIN [3]: 0.23 mg/dL
TOTAL PROTEIN [3]: 5.77 G/DL
URIC ACID [3]: 1.8 mg/dL
